The text below walks through data of patent US20240189343A1, “TREATMENT OF VIRUS INFECTIONS” (priority 2021, published 2024).

Counter-ions that a name gives are not always drawn. Like-named read-outs stand apart in the source and are kept apart here.

Series [1] deals with Zika virus PF13. In words: Zika virus infection of HeLa Kyoto cells, immunofluorescence infectivity readout (Example 1). To be noted: MOI 0.5, 3 and 5, 600, 200, 60 μg/ml, 1 h pre-incubation, 48 h. Type of series: cell-based. Here is the method: (§1) Cells were detached and counted. […] 50 μl of diluted virus or media (uninfected control) was immediately added. […] After 48 h, the plates were washed with PBS, fixed for 30 mins with 4% formaldehyde, washed again with PBS, and stored in PBS at 4° C. until staining. Cells were immunostained with immunofluorescence staining. Briefly, any residual formaldehyde was quenched with 50 mM ammonium chloride, after which cells were permeabilised (0.1% Triton X100) and stained with an antibody recognizing flavivirus envelope protein (Millipore, MAB10216). The primary antibodies were detected with an Alexa-488 conjugate secondary antibody (Life Technologies, A11001), and nuclei were stained with Hoechst. […] Normalized percentages of inhibition were calculated using the following formula: […]

Series [2] deals with Zika virus PF13. In words: Zika virus infection of Vero AD cells, immunofluorescence infectivity readout (Example 1). Type of series: cell-based. The settings on record: for inhibition of Zika virus infection: Vero AD cells, MOI 0.05 and 0.01, 600, 200, 60 μg/ml, 1 h pre-incubation, 48 h. Here is the method:
as §1

In series [3] the test system is DENV1 (strain Hawaii). In words: microbe, parasite or virus in culture. The class given is cell-based, dengue virus.
Series [4] concerns DENV2 (strain New Guinea C). In words: microbe, parasite or virus in culture. Type of series: cell-based, dengue virus.
In series [5] the test system is DENV3 (strain H87). As to the kind of experiment: microbe, parasite or virus in culture. Type of series: cell-based, dengue virus.
For series [6], the system named is DENV4 (strain H241). As to the kind of experiment: microbe, parasite or virus in culture. Type of series: cell-based, dengue virus.
For series [7], the system named is ZIKV African lineage (Strain MP1751). In words: microbe, parasite or virus in culture. Type of series: cell-based, Zika virus.
In series [8] the test system is ZIKV Asian lineage (PF/13). As to the kind of experiment: microbe, parasite or virus in culture. Type of series: cell-based, Zika virus.
For series [9], the system named is YF17D. As to the kind of experiment: microbe, parasite or virus in culture. The class given is cell-based, yellow fever virus.
Series [10] deals with Huh-7 cells. The settings on record: MTT, 48 h.
Series [11] relates to HeLa Kyoto cells. As to the kind of experiment: MTT cytotoxicity in HeLa Kyoto cells (Example 2). To be noted: 48 h.
The test system of series [12] is Vero AD cells. As to the kind of experiment: MTT cytotoxicity on uninfected Vero AD cells (Example 1). To be noted: 600, 200, 60 μg/ml.
In series [13] the test system is HeLa Kyoto cells. In words: MTT cytotoxicity on uninfected HeLa Kyoto cells (Example 1). The settings on record: 600, 200, 60 μg/ml.
Series [14] concerns Huh-7 and HeLa Kyoto cells. As to the kind of experiment: MTT cytotoxicity, Example 2, cell line not specified in the statement. The settings on record: highest concentration tested (10 mg/ml); no cytotoxicity at the other concentrations.
The subject of series [15] is Zika virus. To be noted: 200 μg/ml; Vero cells; cited from earlier work.
Series [16] deals with rats. To be noted: cited from earlier work.

Consider dextran sulfate [listing 1 of 3 here], for which the “inhibition of Zika virus infection” value in [1] is “significant and dose dependent inhibition”; in [1] (listed as dextran sulfate), “inhibits Zika virus infection in human Hela cells in a concentration dependent manner”; in [2], “significant and dose dependent inhibition”; in series [2] (listed as dextran sulfate), “inhibits Zika virus infection in Vero cells in a concentration dependent manner”. The “% of infection inhibition” value in series [2] (200 μg/ml, Vero cells, FIG. 2A (MOI 0.05)) is “more than 80%”. In addition, the “IC50 (inhibition of infection)” value in [3] is at most 600 µg/mL; in series [4] it was at most 600 µg/mL; in series [5], at most 600 µg/mL; in series [6], at most 600 µg/mL; in [7], “less than 0.140 mg/ml”; in series [8] it was “less than 0.140 mg/ml”. In addition, the “IC50 (inhibition of infection)” value in [9] is reported as “less than 0.05 mg/ml”. In addition, the “inhibition of virus infection into human cells” value in series [3], in [8] and in [9] was over 90% each time. The EC50 (usually the concentration at which the effect is half-maximal) turned out to be 290 µg/mL in series [3] (48 h); 120 µg/mL in series [4] (48 h); 30 µg/mL in [5] (48 h); 610 µg/mL in [6] (48 h); 60 µg/mL in [7] (48 h); 140 µg/mL in [8] (48 h). In series [9] (48 h), this compound came in with an EC50 of 40 µg/mL. The TC50 in series [10] (table line Dengue virus 1 Hawaii strain (Huh-7)), in series [10] (table line Dengue virus 2 New Guinea C strain (Huh-7)), in [10] (table line Dengue virus 3 H87 strain (Huh-7)), in series [10] (table line Dengue virus 4 H241 strain (Huh-7)), in series [10] (table line Yellow Fever virus 17D strain (Huh-7)) and in series [11] (table line Zika virus African strain (HeLa Kyoto)) was over 10000 µg/mL each time. This compound also yielded a TC50 in series [11] (table line Zika virus Asian strain (HeLa Kyoto)) of over 10000 µg/mL. Moreover, the “cytotoxicity (MTT)” value in series [12] and in series [13] was “No significant cytotoxicity” each time. For the same compound, the “cytotoxicity (maximal)” value in [14] is given as at most 16%.
For dextran sulfate [listing 2 of 3 here], in series [15], the “% infection inhibition” value is on record as “about 60%”.
As for dextran sulfate [listing 3 of 3 here], in series [16], the toxicity to rats result was “highly toxic”.
For the compound `CC[C@@]1([C@@H]2O[C@@H]([C@H]3O[C@@](O)(CO)[C@H](C)C[C@@H]3C)C[C@@H]2C)CC[C@H]([C@]2(C)CC[C@]3(C[C@H](O)[C@@H](C)[C@@H]([C@@H](C)[C@@H](OC)[C@H](C)C(=O)O)O3)O2)O1` [Monensin, Monensin sodium salt, reference compound], the EC50 in [3] (Dengue virus, DENV1, Huh-7) stood at 1.19 nM; in series [4] (Dengue virus, DENV2, Huh-7) it was 0.88 nM; in series [5] (Dengue virus, DENV3, Huh-7), 0.69 nM; in series [6] (Dengue virus, DENV4, Huh-7), 2.61 nM; in series [7] (Zika virus, HeLa Kyoto), 70.7 nM; in series [8] (Zika virus, HeLa Kyoto), 68.1 nM. Also, in [9] (Yellow fever virus, Huh-7), the EC50 was 6.54 nM.
